# Reference: ChEMBL document CHEMBL5727281, “N2-phenyl-pyrido[3,4-D]pyrimidine-2, 8-diamine derivatives and their use as Mps1 inhibitors” (2019)
# Target: T1, Dual specificity protein kinase TTK (Homo sapiens, UniProt P33981)
# T1 sequence (P33981 whole entry): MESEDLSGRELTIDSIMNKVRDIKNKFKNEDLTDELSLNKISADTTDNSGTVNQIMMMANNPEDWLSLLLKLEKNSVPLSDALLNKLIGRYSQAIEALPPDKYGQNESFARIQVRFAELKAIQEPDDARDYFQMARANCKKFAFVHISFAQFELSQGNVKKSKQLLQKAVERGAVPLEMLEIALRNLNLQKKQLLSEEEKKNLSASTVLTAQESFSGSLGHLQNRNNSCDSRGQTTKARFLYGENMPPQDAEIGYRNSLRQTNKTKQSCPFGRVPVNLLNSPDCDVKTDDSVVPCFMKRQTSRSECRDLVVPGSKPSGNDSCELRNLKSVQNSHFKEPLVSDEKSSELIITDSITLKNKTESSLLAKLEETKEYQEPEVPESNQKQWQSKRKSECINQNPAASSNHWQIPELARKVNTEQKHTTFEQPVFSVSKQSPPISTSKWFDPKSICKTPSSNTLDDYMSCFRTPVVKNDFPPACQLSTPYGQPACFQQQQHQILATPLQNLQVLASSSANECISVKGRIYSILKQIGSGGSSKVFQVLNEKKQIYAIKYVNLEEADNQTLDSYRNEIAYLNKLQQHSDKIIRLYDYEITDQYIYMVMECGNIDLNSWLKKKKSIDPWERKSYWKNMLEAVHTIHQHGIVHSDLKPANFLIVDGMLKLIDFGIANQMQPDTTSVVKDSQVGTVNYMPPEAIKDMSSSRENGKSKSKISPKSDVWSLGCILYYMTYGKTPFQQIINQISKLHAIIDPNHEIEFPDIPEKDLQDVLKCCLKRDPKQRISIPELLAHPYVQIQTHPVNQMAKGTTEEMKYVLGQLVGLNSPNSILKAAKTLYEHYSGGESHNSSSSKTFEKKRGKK
# Experiment: The reaction was carried out for 60 min at room temperature and stopped by the addition of buffer (10 μl) containing 20 mM EDTA, 0.05% (v/v) Brij-35, in 0.1M HEPES-buffered saline (Free acid, Sigma, UK). […] The % inhibition of the compounds is calculated relative to the means of selected control wells. […] The % inhibitions at each concentration are then fitted to a 4 parameter logistic fit.
row,SMILES,IC50 [nM]
1,CCOc1cc(-c2nncn2C)ccc1Nc1ncc2cc(C)nc(N3CCC(C)(OC)CC3)c2n1,3
2,CCOc1cc(-c2nncn2C)ccc1Nc1ncc2cc(C)nc(N3CC(F)(F)C3)c2n1,6
3,CCOc1cc(-c2nncn2C)ccc1Nc1ncc2cc(C)nc(N3CCC(C)(C#N)C3)c2n1 (stereo not drawn),3
4,CCOc1cc(-c2nncn2C)ccc1Nc1ncc2cc(C)nc(N3CC(O)(CC)C3)c2n1,4
5,CCOc1cc(-c2nncn2C)ccc1Nc1ncc2cc(C)nc(N3CC4(CCCC4)C3)c2n1,2
6,COc1cc(-c2cnc(C)n2C)ccc1Nc1ncc2cc(C)nc(NCC3(C)CCOC3)c2n1 (stereo not drawn),2
7,CCOc1cc(-c2nncn2C)ccc1Nc1ncc2cc(C)nc(N3CCC(C#N)C3)c2n1 (stereo not drawn),3
8,COc1cc(-c2cnc(C)n2C)ccc1Nc1ncc2cc(C)nc(N3CC(C)(C#N)C3)c2n1,2
